Data taken from patent publication US20090239926A1, “METHODS FOR THE TREATMENT OF PSORIASIS OR PSORIATIC ARTHRITIS USING CYCLOPROPYL-N-CARBOXAMIDE” (priority 2008, published 2009).

Tests used:
[1] = test system: normal human skin xenotransplanted onto beige-SCID mice injected with psoriatic patient NK cells; assay: Human NK cell-driven psoriasis model: human skin xenotransplanted onto beige-SCID mice; type: in vivo; conditions: 5 mg/kg/day p.o., b.i.d., 14 days
Method: Healthy human skin pieces having a width of 0.4 mm and surface area of 3×3 cm were provided from residual skin of routine plastic surgery procedures from the Plastic Surgery Department of the Rambam Medical Center, Isreal. In addition, blood samples from psoriatic patients were taken at a volume of 25 mL.
Twenty-one (21) beige-severe combined immunodeficient mice (SCID) (weight about 20 g) were included in this study. Normal human skin was transplanted onto the beige-SCID mice as previously described by Nickoloff et al., 1995; Wrone-Smith, et al., 1996. A sample of each donor was transplanted onto […] so that the three treatment groups (n=7 mice/group) were homogenous.
PBMC from the psoriatic patient blood were isolated and cultured in the presence of IL-2 (100 U/mL of media) for 14 days to activate the NK cells, as previously described by Gilhar et al., J. Invest. Dermatol. 2002, 119(2):384-91. Four weeks following the engraftment, each mouse was injected with 1×10^7 psoriatic patients activated allogeneic NK cells (1×10^7 cells injected/mouse, n=21). Two weeks following the injections, the mice were divided and treated, twice a day for 14 days. All compounds were dosed at 5 mg/kg/day, divided into b.i.d. doses. To perform p.o. administration, mice were held firmly by gently gripping their fur over the neck with thumb and index fingers and restraining the tail with the little finger. A volume of 0.05 mL of a 1 mg/ml aqueous solution of Compound A was administrated twice a day (b.i.d.) with a syringe through a blunt-ended curved feeding tube, which was inserted into the esophagus. The vehicle (negative) control groups received 0.05 mL (b.i.d.) of a 0.5% carboxymethylcellulose and 0.25% Tween 80. […] Two weeks after starting the treatments (4 weeks following the injections), the skins were harvested. Grafts were analyzed by histology and immunohistochemistry.
Determination of Epidermal Thickness: Skin graft histological assessment was performed by light microscopy both before and after transplantation and two blinded observers performed the evaluations. Epidermal thickness was determined with an ocular micrometer, at a minimum of 50 points along the epidermis selected to represent points of maximal and minimal thickness. Thickness of the suprapapillary plate was similarly measured at 50 points for each sample.
Immunohistochemical Staining: Monoclonal antibodies to human antigens used were as follows for immunohistochemistry on frozen sections: anti-HLA-DR (Becton Dickenson, San Jose, Calif.), and anti-CD54 (ICAM-1) (Biodesign, Saco, Me.). Purified murine IgG was used as a control for the above antibodies. Immunohistochemistry was performed on OCT embedded specimens with a biotin-avidin system (Vectostain, Vector Laboratories, Burlingame, Calif.).
Goat anti-human TNF-α (R&D Systems, Minneapolis, Minn.) was used on deparaffinized and peroxidase blocked slides. Sections were treated with citrate buffer, pH=6, in the microwave oven for 20 minutes. The sections were then cooled for 30 minutes at room temperature and blocked for non-specific binding as well as avidin-biotin. All washes were performed with phosphate-buffered saline-saponin. Anti-TNF-α was applied overnight at 4° C. Slides were then incubated with biotinylated rabbit anti goat-IgG (DAKO, Carpinteria, Calif.), followed by streptavidin horseradish peroxidase (HRP) (Jackson Immunoresearch, West Grove, Pa.). The color was developed with 3-amino-9-ethylcarbazole (AEC).
Scoring of Immunohistochemical Staining: Diffuse staining was defined as positive and intense expression of more than 50 percent of the epidermis versus focal staining which was defined as less than 50 percent of the epidermis. Focal staining may represent positive expression of very small areas.
Statistical Analysis: Statistical analysis was carried out using the one-way ANOVA with a Bonferroni Multiple Comparison post-hoc test using Prism 4.00 (GraphPad Software; San Diego, Calif.).

human PDE2 = human PDE2 (Homo sapiens, UniProt O00408); assay: Specificity: PDE2; type: biochemical
human PDE2, sequence (O00408 whole entry): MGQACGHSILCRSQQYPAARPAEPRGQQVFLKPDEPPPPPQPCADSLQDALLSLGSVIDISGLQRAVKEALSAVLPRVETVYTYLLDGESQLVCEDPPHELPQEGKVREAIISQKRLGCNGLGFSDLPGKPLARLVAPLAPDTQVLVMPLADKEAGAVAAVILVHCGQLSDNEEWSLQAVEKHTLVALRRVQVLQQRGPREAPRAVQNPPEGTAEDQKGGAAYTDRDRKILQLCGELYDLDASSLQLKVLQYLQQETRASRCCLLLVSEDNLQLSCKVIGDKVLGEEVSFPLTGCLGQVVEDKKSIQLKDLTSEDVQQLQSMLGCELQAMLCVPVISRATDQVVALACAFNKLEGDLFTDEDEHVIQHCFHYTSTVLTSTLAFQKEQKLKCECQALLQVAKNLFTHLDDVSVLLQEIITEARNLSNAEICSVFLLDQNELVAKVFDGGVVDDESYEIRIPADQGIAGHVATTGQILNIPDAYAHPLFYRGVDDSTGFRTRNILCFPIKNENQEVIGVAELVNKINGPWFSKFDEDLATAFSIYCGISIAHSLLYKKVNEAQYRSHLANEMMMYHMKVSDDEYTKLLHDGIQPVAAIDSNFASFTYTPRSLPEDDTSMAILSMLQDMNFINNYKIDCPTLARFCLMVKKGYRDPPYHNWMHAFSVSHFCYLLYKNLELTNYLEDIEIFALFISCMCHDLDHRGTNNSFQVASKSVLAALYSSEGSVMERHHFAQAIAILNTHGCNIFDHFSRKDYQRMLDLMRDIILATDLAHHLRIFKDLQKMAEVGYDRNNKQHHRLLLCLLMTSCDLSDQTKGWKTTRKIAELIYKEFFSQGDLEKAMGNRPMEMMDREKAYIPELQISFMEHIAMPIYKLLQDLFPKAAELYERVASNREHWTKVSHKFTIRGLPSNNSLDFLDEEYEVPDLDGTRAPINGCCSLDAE
Method: (§1) The specificity of Compound A for PDE4 was assessed by testing at a single concentration (10 μM) against bovine PDE1, human PDE2, PDE3 and PDE5 from human platelets, and PDE6 from bovine retinal rod outer segments.

[2] = biological target: T1, PDE6 from bovine retinal rod outer segments (Bos taurus, UniProt P11541+P23439); assay: Specificity: PDE6; type: biochemical
T1 construct: PDE6 from bovine retinal rod outer segments; from tissue; host or cells: bovine retinal rod outer segments
T1 sequence (P11541 2-856 limits assumed): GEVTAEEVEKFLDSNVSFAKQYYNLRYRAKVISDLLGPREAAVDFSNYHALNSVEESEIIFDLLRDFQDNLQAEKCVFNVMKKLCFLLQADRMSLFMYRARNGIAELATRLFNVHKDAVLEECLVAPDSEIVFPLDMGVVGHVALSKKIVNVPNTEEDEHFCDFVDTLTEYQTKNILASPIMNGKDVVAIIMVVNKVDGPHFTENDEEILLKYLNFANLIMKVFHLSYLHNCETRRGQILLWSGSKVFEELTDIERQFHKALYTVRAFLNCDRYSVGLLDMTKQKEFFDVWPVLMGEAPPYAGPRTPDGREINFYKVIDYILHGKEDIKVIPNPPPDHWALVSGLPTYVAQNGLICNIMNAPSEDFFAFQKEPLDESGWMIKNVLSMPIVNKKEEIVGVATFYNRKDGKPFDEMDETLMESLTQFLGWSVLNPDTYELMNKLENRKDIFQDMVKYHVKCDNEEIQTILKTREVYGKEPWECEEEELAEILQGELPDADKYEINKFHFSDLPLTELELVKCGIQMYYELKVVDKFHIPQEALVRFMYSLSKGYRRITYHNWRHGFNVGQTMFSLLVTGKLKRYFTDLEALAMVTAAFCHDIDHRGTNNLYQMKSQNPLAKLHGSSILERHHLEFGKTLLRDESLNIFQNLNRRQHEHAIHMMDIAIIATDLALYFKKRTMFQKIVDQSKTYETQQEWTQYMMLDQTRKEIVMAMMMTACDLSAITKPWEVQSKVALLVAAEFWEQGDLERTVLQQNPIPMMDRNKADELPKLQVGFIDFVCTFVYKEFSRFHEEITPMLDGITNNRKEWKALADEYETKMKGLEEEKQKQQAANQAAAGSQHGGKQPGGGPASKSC
T1 sequence (P23439 2-850 limits assumed): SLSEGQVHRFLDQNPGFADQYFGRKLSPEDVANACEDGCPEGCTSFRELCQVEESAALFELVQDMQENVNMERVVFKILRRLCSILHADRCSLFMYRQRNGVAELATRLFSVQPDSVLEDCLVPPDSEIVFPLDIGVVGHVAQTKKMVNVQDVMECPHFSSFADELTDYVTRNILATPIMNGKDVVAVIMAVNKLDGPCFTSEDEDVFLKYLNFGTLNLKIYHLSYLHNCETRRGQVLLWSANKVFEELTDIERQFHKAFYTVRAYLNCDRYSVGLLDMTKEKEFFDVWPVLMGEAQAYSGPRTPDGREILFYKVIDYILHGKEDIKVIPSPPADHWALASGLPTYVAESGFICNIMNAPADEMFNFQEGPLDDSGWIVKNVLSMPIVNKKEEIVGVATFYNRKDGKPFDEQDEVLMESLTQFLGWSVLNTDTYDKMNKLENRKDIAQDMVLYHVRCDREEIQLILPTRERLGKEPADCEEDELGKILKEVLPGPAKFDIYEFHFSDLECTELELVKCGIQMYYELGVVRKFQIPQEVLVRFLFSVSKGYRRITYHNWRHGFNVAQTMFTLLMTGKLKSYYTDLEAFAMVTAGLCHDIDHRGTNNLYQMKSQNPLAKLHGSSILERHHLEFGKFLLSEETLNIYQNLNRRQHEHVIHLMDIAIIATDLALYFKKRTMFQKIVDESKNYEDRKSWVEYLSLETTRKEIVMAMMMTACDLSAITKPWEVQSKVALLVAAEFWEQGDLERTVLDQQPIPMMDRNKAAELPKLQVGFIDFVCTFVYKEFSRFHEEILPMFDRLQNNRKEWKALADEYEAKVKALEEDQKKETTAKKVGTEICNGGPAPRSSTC
Method: as §1

inhibition at 10 µM (human PDE2): -14% | inhibition at 10 µM [2]: 17%
SMILES: CCOc1cc([C@@H](CS(C)(=O)=O)N2Cc3cccc(NC(=O)C4CC4)c3C2=O)ccc1OC [Compound A, cyclopropyl-N-{2-[(1S)-1-(3-ethoxy-4-methoxyphenyl)-2-(methylsulfonyl)ethyl]-3-oxoisoindoline-4-yl}carboxamide]
HLA-DR staining: number of grafts (of 7) with Diffuse pattern [1]: 4 Diffuse | Histological features: Complete Recovery (grafts of 7) [1]: 3/7 | Histological features: Partial Recovery (grafts of 7) [1]: 1/7 | Histological features: Psoriasiform (grafts of 7) [1]: 3/7 | ICAM-1 staining: number of grafts (of 7) with Diffuse pattern [1]: 3 Diffuse | Recovery, partial or complete (grafts of 7) [1]: (4/7) | TNF-α staining: number of grafts (of 7) with Multiple TNF-α positive cells [1]: 3 Multiple | decrease in epidermal thickness compared to vehicle treated animals [1]: ~50% | grafts (of 7) with ICAM-1 reduced to focal or negative expression [1]: 4/7 | grafts (of 7) with few or negative TNF-α expressing cells [1]: 4/7 | overall response rate (partial plus complete recovery from psoriasis features) [1]: 57% | percentage of grafts with HLA-DR reduced to focal or negative expression [1]: 43% | percentage of grafts with ICAM-1 reduced to focal or negative expression [1]: 57% | percentage of grafts with focal HLA-DR expression [1]: 14.3% | percentage of grafts with negative HLA-DR expression [1]: 28.6% | percentage of grafts with reduced TNF-α expression (partial and complete recovery) [1]: 57% | Epidermal Thickness, Mean ([1]; mean of 7 grafts): 736 μm | Proliferation Index (Ki-67 positive keratinocytes), Mean ([1]; mean of 7 grafts): 26.2% | mean epidermal thickness ([1]; mean of 7 mice): 736 microns | Epidermal Thickness of individual skin graft ([1]; Patient 1): 687 μm | Histological Evaluation of individual skin graft ([1]; Patient 1): Partial recovery w/ | Proliferation Index of individual skin graft ([1]; Patient 1): 41.9% | Epidermal Thickness of individual skin graft ([1]; Patient 2): 1098 μm | Histological Evaluation of individual skin graft ([1]; Patient 2): Psoriasiform | Proliferation Index of individual skin graft ([1]; Patient 2): 47.4% | Epidermal Thickness of individual skin graft ([1]; Patient 3): 626 μm | Histological Evaluation of individual skin graft ([1]; Patient 3): Psoriasiform | Proliferation Index of individual skin graft ([1]; Patient 3): 33.5% | Epidermal Thickness of individual skin graft ([1]; Patient 4): 333 μm | Histological Evaluation of individual skin graft ([1]; Patient 4): Complete recovery | Proliferation Index of individual skin graft ([1]; Patient 4): 12.2% | Epidermal Thickness of individual skin graft ([1]; Patient 5): 457 μm | Histological Evaluation of individual skin graft ([1]; Patient 5): Complete recovery | Proliferation Index of individual skin graft ([1]; Patient 5): 9.2% | Epidermal Thickness of individual skin graft ([1]; Patient 6): 627 μm | Histological Evaluation of individual skin graft ([1]; Patient 6): Complete recovery | Proliferation Index of individual skin graft ([1]; Patient 6): 21.4% | Epidermal Thickness of individual skin graft ([1]; Patient 7): 1324 μm | Histological Evaluation of individual skin graft ([1]; Patient 7): Psoriasiform | Proliferation Index of individual skin graft ([1]; Patient 7): 17.5%
